Source: ChEMBL document CHEMBL1201862, “PubChem BioAssay data set” (2004)
Activity calls are given as the source filed them.

Key:
Genome polyprotein = Genome polyprotein (Hepatitis C virus, UniProt Q2Q167); experiment: disruption of hepatitis C core self-association – biochemical, TR-FRET, dose response (AID 2159); set-up: species or system Hepacivirus hominis;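 note: blocks dimerization of HCV core protein measured by TR-FRET between tagged core106 pairs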
Ephrin type-A receptor 4 = Ephrin type-A receptor 4 (Mus musculus, UniProt Q03137); experiment: EphA4 ligand-binding antagonists – biochemical, colorimetric, mouse EphA4, primary screen (AID 689); assay type: functional
[1] = target: Induced myeloid leukemia cell differentiation protein Mcl-1 (Homo sapiens, UniProt Q07820); assay type: functional
Cytochrome P450 2D6 = Cytochrome P450 2D6 (Homo sapiens, UniProt P10635);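 note: CYP2D6 member of a cytochrome P450 panel assay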
Protein Tat = Protein Tat (Human immunodeficiency virus type 1 group M subtype B (isolate HXB2)(HIV-1), UniProt P04608); assay type: functional;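 note: tat binding to TAR RNA read out by fluorescence polarization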
Caspase-6 = Caspase-6 (Homo sapiens, UniProt P55212); experiment: inhibition of CASP6 peptide cleavage – biochemical, VEID-R110 fluorescence, cherry-pick, dose response (AID 720632)
Kallikrein-7 = Kallikrein-7 (Homo sapiens, UniProt P49862); experiment: Fluorescence Intensity-based biochemical primary high throughput dose response assay to identify activators of kallikrein-7 (K7) zymogen.
cells [2] = experiment: cells
cells [3] = experiment: cells; remark: listed apart in the source
[4] = target: T1, Oxysterols receptor LXR-beta (Homo sapiens, UniProt P55055); assay type: functional, cell-based;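 note: Cell-based luminescence dose-response assay of agonist activity at LXR, run as a confirmatory counterscreen to a daf-12 agonist screen; HEK293 cells with Gal4-LXR fusion and GAL4-driven luciferase reporter; agonist potency from rising luciferase signal of a Gal4-LXR reporter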
T1 sequence (P55055 whole entry): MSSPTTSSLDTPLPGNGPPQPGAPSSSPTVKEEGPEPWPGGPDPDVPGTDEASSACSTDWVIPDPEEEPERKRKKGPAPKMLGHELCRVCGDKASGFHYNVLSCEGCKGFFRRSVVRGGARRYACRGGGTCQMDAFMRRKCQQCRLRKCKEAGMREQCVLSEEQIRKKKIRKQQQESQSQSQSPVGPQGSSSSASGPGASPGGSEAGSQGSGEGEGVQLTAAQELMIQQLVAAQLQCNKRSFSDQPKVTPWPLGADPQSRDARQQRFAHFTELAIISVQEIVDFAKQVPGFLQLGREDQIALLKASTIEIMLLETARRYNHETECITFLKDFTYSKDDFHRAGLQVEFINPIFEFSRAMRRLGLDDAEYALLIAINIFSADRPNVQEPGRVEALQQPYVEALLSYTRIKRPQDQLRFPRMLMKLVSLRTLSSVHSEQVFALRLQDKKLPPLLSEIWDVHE

[5] = viability loss in HepG2 hepatoma cells – cell-based, ATP luminescence, cherry-pick, activator set 2, cytotoxicity control, dose response (AID 1053143); assay type: functional
[6] = system: Streptococcus sp. 'group A'; experiment: Streptococcus pyogenes SK(-)GAS viability under kanamycin – luminescence, BacTiterGlo, confirmation, counter-screen for streptokinase expression inhibitor project, dose response (AID 1900); assay type: functional, organism-based
[7] = NIH3T3 cell viability loss – ATP luminescence, mouse fibroblasts, counter-screen, dose response (AID 2010); assay type: functional, cell-based;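 note: cells exposed to compound for about 90 hours before reading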
[8] = Trypanosoma cruzi growth suppression in host cells – NIH3T3 host cells, beta-gal luminescence, confirmation (AID 2044); assay type: functional, cell-based;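 note: intracellular parasites grown in NIH/3T3 mouse fibroblasts as host cells; luminescent beta-galactosidase reporter signal from transgenic T. cruzi replicating inside host cells; inhibitors lower the luminescence signal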
Streptococcus = experiment: GAS UMAA2166 growth inhibition – luminescence, BacTiterGlo, counter-screen for streptokinase expression inhibitor project, dose response (AID 1915); assay type: functional, organism-based;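 note: potency for reduction of bacterial viability or growth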
Streptokinase A = target: T2, Streptokinase A (Streptococcus pyogenes serotype M1, UniProt P10520); experiment: viability-normalized secreted streptokinase activity reduction – plasminogen activation absorbance, OD405, dose response (AID 1914); assay type: functional, Streptococcus pyogenes M1 GAS;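 note: secreted streptokinase activity via plasminogen activation per viability signal from cell pellet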
T2 sequence (P10520 whole entry): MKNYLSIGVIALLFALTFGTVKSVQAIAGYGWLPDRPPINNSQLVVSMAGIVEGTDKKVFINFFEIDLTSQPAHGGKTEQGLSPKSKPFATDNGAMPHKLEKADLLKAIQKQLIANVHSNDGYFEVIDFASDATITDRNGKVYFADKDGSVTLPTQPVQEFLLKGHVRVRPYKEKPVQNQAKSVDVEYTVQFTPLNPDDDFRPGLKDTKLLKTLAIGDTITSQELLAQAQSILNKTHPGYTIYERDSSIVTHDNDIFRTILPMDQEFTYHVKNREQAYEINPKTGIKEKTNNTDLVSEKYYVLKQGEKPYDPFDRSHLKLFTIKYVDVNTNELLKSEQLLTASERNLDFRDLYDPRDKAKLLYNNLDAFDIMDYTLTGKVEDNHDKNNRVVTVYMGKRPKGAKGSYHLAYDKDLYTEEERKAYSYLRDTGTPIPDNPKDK

[9] = activation of miR-122 Renilla sensor silencing – cell-based, Huh7 psiCHECK-miR122, Renilla luciferase, cherry-picked, dose response (AID 651956); assay type: functional;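 note: huh7 hepatoma cells stably carrying a psiCHECK-2 miR-122 sensor plasmid; renilla luciferase signal reporting endogenous miR-122 activity after 48 h compound exposure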
[10] = Luminescence Cell-Based Dose Retest to Confirm Inhibitors of Cancer Stem Cells. [Related pubchem assays (depositor defined):AID2717, AID2721]; assay type: functional; conditions: Homo sapiens
[11] = general mammalian cell viability loss – activator set, cherry-pick, cytotoxicity control for miR-122 modulator project, dose response (AID 720690); assay type: functional, cell-based;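 note: HEK293T human cells scored for general mammalian cytotoxicity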
[12] = target: Luciferin 4-monooxygenase (Photinus pyralis, UniProt P08659); experiment: Counter Screen for Luciferase-based Assay Positives. [Related pubchem assays: 620, 618, 411 ]
HT-1080 = experiment: HT1080 cell viability loss – fluorescence readout (AID 620); assay type: functional, cell-based; conditions: Homo sapiens
[13] = viability loss in HEK293 kidney cells – cell-based, cherry-picks, set 5, cytotoxicity control, dose response (AID 1053117); assay type: functional
[14] = reduced cellular PGC1a acetyl-lysine signal – cell-based, cherry-picked samples, dose response (AID 720514); assay type: functional;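 note: potency may reflect raised or lowered acetylation signal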
[15] = blockers of FN fibrillogenesis by fibroblasts – AH1F cells, Alexa488-FN fluorescence, cherry-picks, dose response (AID 1035475); assay type: functional, cell-based
[16] = toxicity to human hepatoma HepG2 cells – cell-based, cherry-picked samples, cytotoxicity control, dose response (AID 1159577); assay type: functional
[17] = P. falciparum Dd2 growth inhibitors, dose response, SYBR Green, cherry-picked samples (AID 1159567); assay type: functional, cell-based
[18] = Luminescence Cell-Based Dose Response HTS to Identify Activators of Luciferase Translation or Activity in H4 […] Cells. [Related pubchem assays: 1829 (Project Summary), 1814 (Primary HTS)]; assay type: functional
H4 = experiment: Luminescence Cell-Based Dose Response HTS to Identify Activators of 5'UTR Stem-Loop Driven Prion Protein mRNA Translation in H4 Neuroglioblastoma Cells. [Related pubchem assays: 1829 (Project Summary), 1814 (Primary HTS)]; assay type: functional; conditions: Homo sapiens
cells [19] = conditions: A549
[20] = target: Peroxisome proliferator-activated receptor gamma/Nuclear receptor coactivator 1 (Homo sapiens, UniProt P37231); assay type: functional;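 note: agonist potency as compounds enhance coactivator SRC-1 recruitment to PPARgamma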
[21] = target: Peroxisome proliferator-activated receptor gamma/Nuclear receptor coactivator 2 (Homo sapiens, UniProt P37231); assay type: functional;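 note: agonist potency for raising coactivator recruitment to the receptor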
[22] = target: Peroxisome proliferator-activated receptor gamma/Nuclear receptor coactivator 3 (Homo sapiens, UniProt P37231); assay type: functional;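 note: agonist potency for raising coactivator recruitment to the receptor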
[23] = Luminescence Cell-Based Dose Confirmation HTS to Identify Activators of 5'UTR Stem-Loop Driven Alpha-Synuclein mRNA Translation in H4 Neuroglioblastoma Cells. [Related pubchem assays: 1829 (Project Summary), 1814 (Primary HTS)]; assay type: functional

Ephrin type-A receptor 4, sequence (Q03137 whole entry): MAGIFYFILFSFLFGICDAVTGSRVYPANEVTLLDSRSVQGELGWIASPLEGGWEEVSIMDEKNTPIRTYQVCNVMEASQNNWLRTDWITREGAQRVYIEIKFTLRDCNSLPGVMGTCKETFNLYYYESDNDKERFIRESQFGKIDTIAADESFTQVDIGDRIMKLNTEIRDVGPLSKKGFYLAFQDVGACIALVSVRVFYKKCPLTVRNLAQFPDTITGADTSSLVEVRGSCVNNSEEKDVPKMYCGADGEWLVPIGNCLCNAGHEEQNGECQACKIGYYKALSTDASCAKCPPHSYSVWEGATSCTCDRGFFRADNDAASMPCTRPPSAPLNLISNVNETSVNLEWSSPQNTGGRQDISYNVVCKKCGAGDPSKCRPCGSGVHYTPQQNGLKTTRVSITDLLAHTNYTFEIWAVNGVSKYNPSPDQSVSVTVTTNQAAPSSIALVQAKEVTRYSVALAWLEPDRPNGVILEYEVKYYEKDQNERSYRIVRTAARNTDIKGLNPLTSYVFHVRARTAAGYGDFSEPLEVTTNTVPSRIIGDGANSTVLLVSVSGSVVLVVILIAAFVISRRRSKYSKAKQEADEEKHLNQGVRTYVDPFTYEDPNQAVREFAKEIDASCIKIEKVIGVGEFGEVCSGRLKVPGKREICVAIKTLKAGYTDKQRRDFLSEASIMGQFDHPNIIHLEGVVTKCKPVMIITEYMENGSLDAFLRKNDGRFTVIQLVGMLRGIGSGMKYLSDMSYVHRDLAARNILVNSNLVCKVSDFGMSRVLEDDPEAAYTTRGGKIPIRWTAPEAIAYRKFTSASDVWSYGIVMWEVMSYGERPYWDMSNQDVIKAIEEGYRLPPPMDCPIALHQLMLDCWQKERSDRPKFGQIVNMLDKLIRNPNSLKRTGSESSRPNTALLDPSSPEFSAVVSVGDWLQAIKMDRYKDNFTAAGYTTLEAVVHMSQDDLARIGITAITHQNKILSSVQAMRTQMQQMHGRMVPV
Protein Tat, sequence (P04608 whole entry): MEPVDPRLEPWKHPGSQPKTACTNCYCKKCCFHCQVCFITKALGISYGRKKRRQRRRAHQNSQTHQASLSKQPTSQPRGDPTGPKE
Cytochrome P450 2D6, sequence (P10635 whole entry): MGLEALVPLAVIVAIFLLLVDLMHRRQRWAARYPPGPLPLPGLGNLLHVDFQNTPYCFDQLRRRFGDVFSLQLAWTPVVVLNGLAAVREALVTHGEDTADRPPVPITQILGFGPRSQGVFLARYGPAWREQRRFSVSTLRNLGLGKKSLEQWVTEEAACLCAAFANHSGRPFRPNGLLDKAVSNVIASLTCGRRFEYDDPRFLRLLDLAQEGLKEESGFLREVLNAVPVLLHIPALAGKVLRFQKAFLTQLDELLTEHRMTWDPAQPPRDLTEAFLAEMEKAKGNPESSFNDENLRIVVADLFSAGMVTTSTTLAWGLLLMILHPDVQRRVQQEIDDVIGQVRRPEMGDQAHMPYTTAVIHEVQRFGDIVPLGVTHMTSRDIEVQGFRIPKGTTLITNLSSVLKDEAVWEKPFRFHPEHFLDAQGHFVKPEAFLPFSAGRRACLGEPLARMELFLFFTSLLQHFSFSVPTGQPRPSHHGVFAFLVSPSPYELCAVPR
Genome polyprotein, sequence (Q2Q167 whole entry): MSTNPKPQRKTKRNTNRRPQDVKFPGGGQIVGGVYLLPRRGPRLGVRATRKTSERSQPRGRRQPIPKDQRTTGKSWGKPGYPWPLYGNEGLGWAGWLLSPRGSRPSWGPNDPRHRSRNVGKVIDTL
Luciferin 4-monooxygenase, sequence (P08659 whole entry): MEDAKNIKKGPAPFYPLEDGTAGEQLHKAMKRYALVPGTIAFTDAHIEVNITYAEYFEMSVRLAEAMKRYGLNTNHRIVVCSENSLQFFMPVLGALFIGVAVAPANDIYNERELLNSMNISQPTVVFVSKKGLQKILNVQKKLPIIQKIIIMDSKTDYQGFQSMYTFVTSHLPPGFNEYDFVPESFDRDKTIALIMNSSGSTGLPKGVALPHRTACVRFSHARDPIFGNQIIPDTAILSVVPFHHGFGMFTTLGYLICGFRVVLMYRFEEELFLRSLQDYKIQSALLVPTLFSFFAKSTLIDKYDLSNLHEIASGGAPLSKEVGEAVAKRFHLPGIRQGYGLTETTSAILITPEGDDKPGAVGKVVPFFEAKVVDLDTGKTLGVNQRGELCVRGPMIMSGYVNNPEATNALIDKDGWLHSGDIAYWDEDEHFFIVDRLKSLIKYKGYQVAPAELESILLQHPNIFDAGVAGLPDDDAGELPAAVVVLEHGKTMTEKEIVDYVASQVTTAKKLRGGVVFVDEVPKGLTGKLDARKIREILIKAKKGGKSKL
Caspase-6, sequence (P55212 24-179 limits assumed): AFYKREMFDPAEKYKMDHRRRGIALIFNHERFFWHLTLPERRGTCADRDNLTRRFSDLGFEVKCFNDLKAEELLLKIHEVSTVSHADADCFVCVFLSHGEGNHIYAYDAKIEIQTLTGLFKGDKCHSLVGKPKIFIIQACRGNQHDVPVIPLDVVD
Caspase-6, sequence (P55212 194-293 limits assumed): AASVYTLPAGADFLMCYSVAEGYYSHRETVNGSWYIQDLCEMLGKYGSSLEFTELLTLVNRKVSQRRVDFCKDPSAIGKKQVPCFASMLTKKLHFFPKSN
Kallikrein-7, sequence (P49862 whole entry): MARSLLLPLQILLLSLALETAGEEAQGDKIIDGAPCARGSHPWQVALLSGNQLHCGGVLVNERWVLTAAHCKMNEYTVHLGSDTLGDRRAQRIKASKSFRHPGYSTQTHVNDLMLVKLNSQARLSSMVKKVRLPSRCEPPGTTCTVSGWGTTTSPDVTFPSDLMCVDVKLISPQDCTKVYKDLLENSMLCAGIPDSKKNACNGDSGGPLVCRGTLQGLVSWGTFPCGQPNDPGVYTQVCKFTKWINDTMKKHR
Induced myeloid leukemia cell differentiation protein Mcl-1, sequence (Q07820 whole entry): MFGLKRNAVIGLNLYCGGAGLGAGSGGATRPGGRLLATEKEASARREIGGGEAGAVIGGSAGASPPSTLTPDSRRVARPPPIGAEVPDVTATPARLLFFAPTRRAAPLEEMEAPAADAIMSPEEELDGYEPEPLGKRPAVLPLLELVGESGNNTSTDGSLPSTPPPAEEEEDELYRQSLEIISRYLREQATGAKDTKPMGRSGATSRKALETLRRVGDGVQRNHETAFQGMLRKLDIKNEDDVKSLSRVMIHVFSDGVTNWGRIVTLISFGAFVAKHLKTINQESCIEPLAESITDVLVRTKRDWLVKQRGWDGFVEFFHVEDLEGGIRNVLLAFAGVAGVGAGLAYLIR

Q: Which IC50 (Genome polyprotein) does the source give for `Cc1cccc2c(N=Nc3ccc(S(=O)(=O)Nc4ccc(Cl)cc4)cc3[N+](=O)[O-])c(O)[nH]c12` here?
A: The IC50 was > 49.8 µM (not active).

Q: What does the source list for `CCNc1ccc(Br)cc(C(=O)/C=C/c2ccc3c(c2)OCO3)c1=O`?
A: IC50 (Ephrin type-A receptor 4): 5.22 µM (active); IC50 [1]: 2.58 µM (active); AC50 (Cytochrome P450 2D6): 8.91 µM (inconclusive); IC50 (Protein Tat): 29.1 µM (inconclusive)

Q: With `COc1cc(/C=C2\SC(=S)N(Nc3ncc(C(F)(F)F)cc3Cl)C2=O)cc(OC)c1OC` as the compound, how does the IC50 (Ephrin type-A receptor 4) read?
A: Its IC50 is 3.57 µM (active).

Q: With `O=C1CC(C(=O)Nc2ccc(Br)cc2)C2(CCCC2)O1` (configuration not stated) as the compound, how does the AC50 (Caspase-6) read?
A: Its AC50 is 6.92 µM (active).

Q: For `Cc1sc(-c2ccncc2)nc1OC(=O)c1ccc(F)cc1F`, which EC50 (Kallikrein-7) is on record?
A: The EC50 was 26.5 µM (inactive).

Q: Which IC50 (Protein Tat) does the source give for `COC(=O)c1ccc(C)c(NC(=O)CCSc2ccccc2)c1` here?
A: Its IC50 is 65.1 µM (inconclusive).

Q: With `COc1ccc(C2C(C#N)=C(N)Oc3cc(O)ccc32)cc1Cl` (configuration not stated) as the compound, how does the AC50 (cells [2]) read?
A: Its AC50 is 19.9 µM (active).

Q: With `Cc1cccc(Nc2nc(-c3ccccc3)cs2)n1` as the compound, how does the EC50 (cells [3]) read?
A: The EC50 was > 67.5 µM (inactive).

Q: What about the EC50 [4] of the same compound?
A: The EC50 was > 67.5 µM (inactive).

Q: With `O=C(Nc1nc2cc3c(cc2s1)OCCO3)c1ccc([N+](=O)[O-])o1` as the compound, how does the AC50 [5] read?
A: The AC50 was 26 µM (active).

Q: And the EC50 [6]?
A: Its EC50 is 16.6 µM (active).

Q: What about the EC50 [7] of the same compound?
A: The EC50 was > 60 µM (not active).

Q: What about the EC50 [8] of the same compound?
A: Its EC50 is 1.78 µM (active).

Q: What about the EC50 (Streptococcus) of the same compound?
A: The EC50 was > 150 µM (not active).

Q: What about the EC50 (Streptokinase A) of the same compound?
A: The EC50 was > 150 µM (not active).

Q: Which results are given for `COc1ccc(-c2cc(C3CCN(c4ccc(C(C)=O)cc4[N+](=O)[O-])CC3)[nH]n2)cc1`?
A: AC50 [9]: 23 µM (active); EC50 [6]: 2.74 µM (active); EC50 [7]: > 60 µM (not active); AC50 [10]: 2.46 µM (active); EC50 [8]: 1.87 µM (active); EC50 (Streptococcus): 24.3 µM (active); EC50 (Streptokinase A): > 150 µM (not active); AC50 [11]: 17.6 µM (active)

Q: What does the source list for `COc1cccc(-c2nc3cc(C)ccc3o2)c1`?
A: AC50 [5]: 26 µM (active); EC50 [12]: > 100 µM (not active); EC50 (cells [3]): > 67.6 µM (inactive); EC50 (HT-1080): > 50 µM (not active); EC50 [4]: > 67.6 µM (inactive)

Q: With `C[C@H]1CN([C@@H](C)CO)C(=O)c2cc(-c3ccccc3)cnc2O[C@@H]1CN(C)C(=O)c1cccc(F)c1` as the compound, how does the AC50 [13] read?
A: Its AC50 is > 52 µM (inactive).

Q: For `C[C@@H]1CN([C@H](C)CO)S(=O)(=O)c2ccc(C3=CCCCC3)cc2O[C@H]1CN(C)Cc1ccccc1`, which AC50 [14] is on record?
A: The AC50 was 11.4 µM (active).

Q: With `O=C(Nc1ccccc1F)N1C[C@H]2[C@@H](c3ccccc31)[C@H](CO)N2C(=O)C1CC1` as the compound, how does the AC50 [15] read?
A: Its AC50 is > 70 µM (inactive).

Q: With `CO[C@@H]1CN(C)C(=O)c2ccc(NC(=O)c3ccc(Oc4ccccc4)cc3)cc2OC[C@@H](C)N(C(C)=O)C[C@H]1C` as the compound, how does the AC50 [14] read?
A: Its AC50 is 24.2 µM (active).

Q: Which AC50 [16] does the source give for `COc1ccc2c3c([nH]c2c1)[C@H](CO)N(S(=O)(=O)c1ccc(C)cc1)CC31CN(Cc2ccccc2)C1` here?
A: Its AC50 is > 39 µM (inactive).

Q: And the AC50 [17]?
A: Its AC50 is 17.5 µM (active).

Q: Which AC50 [16] does the source give for `Cc1ccc(S(=O)(=O)N[C@H]2CC[C@H](CCn3cc(C4CCCC4)nn3)O[C@@H]2CO)cc1` here?
A: The AC50 was > 39 µM (inactive).

Q: And the AC50 [17]?
A: Its AC50 is 13.6 µM (active).

Q: For `Cc1cccn2c(=O)c3cc(C(=O)NCCN4CCOCC4)c(=N)n(CCc4ccccc4)c3nc12`, which EC50 [18] is on record?
A: Its EC50 is 11 µM (active).

Q: What about the EC50 (H4) of the same compound?
A: The EC50 was > 120 µM (not active).

Q: And the AC50 (cells [2])?
A: The AC50 was 1.28 µM (active).

Q: And the AC50 (cells [19])?
A: Its AC50 is 31.4 µM (active).

Q: And the EC50 [20]?
A: The EC50 was > 79.4 µM (not active).

Q: What about the EC50 [21] of the same compound?
A: Its EC50 is > 79.4 µM (not active).

Q: What about the EC50 [22] of the same compound?
A: The EC50 was > 79.4 µM (not active).

Q: And the EC50 [23]?
A: Its EC50 is > 120 µM (not active).
